The structures appear in SMILES notation. Like-named read-outs stand apart in the source and are kept apart here. Marks after values point to notes of the source that are not given here.

For assay [1], the system named is erythropoietin. The assay can be described thus: Plasma EPO in mice after intravenous injection. In kind it is in vivo, Swiss Webster mice. The note with it: mouse plasma, 20 mg/kg i.v., four hours after injection; for EPO: mouse EPO ELISA kit (**); for fold induction at 20 mg/kg: iv, 4 h, read-out: EPO Fold Increase. The method, then: (§1) The effect of compounds of the present invention on expression of cytoprotective and neuroprotective factors in vivo was evaluated as follows. In one series of experiments, male Swiss Webster mice (29-34 g) were administered various compounds of the present invention via intravenous injection into the caudal tail vein. Animals treated by intravenous injection received a 6 ml/kg volume of either 5% Dextrose with an equimolar amount of NaOH or Meglumine (vehicle control) or 20 mg/kg of a compound of the present invention in 5% dextrose with an equimolar amount of NaOH or Meglumine. Four hours after injection, the animals were anesthetized and exsanguinated. Plasma samples were collected in EDTA and heparin coated microtainer tubes. Plasma samples were assayed for erythropoietin and VEGF using commercially-available ELISA kits purchased from R & D Systems (Minneapolis Minn.).

Assay [2] relates to vascular endothelial growth factor (VEGF). Kind of assay: VEGF expression in Kelly neuroblastoma cells. In kind it is cell-based. The note with it: for VEGF: conditioned media after overnight incubation. Here is the method:
(§2) The effect of compounds of the present invention on expression of cytoprotective and neuroprotective factors in neuroblastoma cells was evaluated as follows. Kelly neuroblastoma cells (see, e.g., DSMZ, cat# ACC-355, Braunschweig Germany) were treated with various compounds of the present invention or 1% DMSO (negative control). Following an overnight incubation, the conditioned media was collected from cell cultures and analyzed for erythropoietin (EPO) and vascular endothelial growth factor (VEGF) expression using a QUANTIKINE immunoassay (R&D Systems, Inc., Minneapolis Minn.) according to the manufacturer's instructions.

The test system of assay [3] is C57BL/6 mice, permanent occlusion of the MCA. The assay can be described thus: Permanent middle cerebral artery occlusion (pMCAO) in C57BL/6 mice: infarct volume and edema. In kind it is in vivo. The settings on record: C57BL/6 mice pMCAO, 20-60 mg/kg i.v.; for inhibition in vivo at up to 20 mg/kg: Mus musculus, iv, 24 h, 24 hours after MCA occlusion, read-out: Percent Reduction in Infarct Volume. The method, then:
The effect of compounds of the present invention on infarct volume and edema associated with stroke was examined in an animal model of ischemic stroke. In these studies, mice were subjected to permanent occlusion of the middle cerebral artery. Mice were anesthetized intraperitoneally with avertin (0.5 mg/g). Mice were then immobilized in a rodent stereotaxic frame (Kopf Instruments, Tujunga Calif.) and maintained with avertin as needed. The surgical area of the head was swabbed with 70% ethanol and a lateral incision was made between the right orbit and the right ear. […] The distal course of the middle cerebral artery (MCA) was visible through the translucent skull. A small burr-hole craniotomy was performed with a micro-drill (Fine Science Tools, Foster City Calif.). The meninges/dura was removed and the MCA was coagulated by bipolar diathermy. The muscle and soft tissue were replaced and the incision closed with vet-bond adhesive (3M, St. Paul Minn.). These studies were performed in two different mouse models of pMCAO as described below.
In one series of experiments, male C57BL/6 mice (25-35 g) were subjected to permanent occlusion of the MCA as described above. Compounds of the present invention were administered by intravenous injection at various times before or after MCA occlusion (see Table 7). Animals administered compound by intravenous injection received a 6 ml/kg volume of either 5% Dextrose with an equimolar amount of Meglumine (vehicle control) or 20-60 mg/kg of a compound of the present invention in 5% dextrose with an equimolar amount of Meglumine. Body temperature of the animals was maintained by use of a heating pad both during and after surgery. Twenty-four hours after MCA occlusion animals were euthanized with CO2 and their brains removed. After removal, the brain was sliced in 7 coronal sections, each 1 mm thick. The sections were placed rostral side down in a petri dish and stained with 1% Triphenyl tetrazolium chloride for 20 minutes at 37° C. for determination of infarct volume. Brain sections were then digitally photographed and analyzed for changes in infarct volume and extent of edema. Infarct volumes were determined by measuring the infarcted (i.e., non-stained) areas of each brain section and multiplying this value by the section thickness. Extent of edema was determined by the net increase in volume of the ipsilateral cortex compared to that of the contralateral cortex of brain sections.
The effect of compounds of the present invention administered at various times following the onset of stroke was examined further as follows. In these studies, changes in infarct volume were measured using an animal model of stroke when compounds of the present invention were administered from 0 to 8 hours following permanent MCA occlusion. In one series of experiments, male C57BL/6 mice (25-35 g) were subjected to permanent occlusion of the MCA as described above. Compound F was administered to the animals by a single intravenous bolus injection at various times up to 5 hours after MCA occlusion (see Table 8 below). Animals administered compound by intravenous injection received a 6 ml/kg volume of either 5% Dextrose with an equimolar amount of NaOH (vehicle control) or 60 mg/kg of Compound F in 5% dextrose with an equimolar amount of NaOH. Body temperature of the animals was maintained by use of a heating pad both during and after surgery. Changes in infarct volumes were determined as described above.
In another set of experiments, male C57BL/6 mice (25-35 g) were subjected to permanent occlusion of the MCA as described above. Compound F was administered by single intravenous bolus injection at various times up to 8 hours after MCA occlusion (see Table 9 below). Animals administered compound by intravenous injection received a 6 ml/kg volume of either 5% Dextrose with an equimolar amount of Meglumine (vehicle control) or 60 mg/kg of Compound F in 5% dextrose with an equimolar amount of Meglumine. […]

Assay [4] relates to VEGF. The assay can be described thus: Plasma VEGF in mice after intravenous injection. The note with it: mouse plasma, 20 mg/kg i.v., four hours after injection; for fold induction at 20 mg/kg: iv, 4 h, read-out: VEGF Fold Increase. In kind it is in vivo, Swiss Webster mice. Here is the method: as §1
For assay [5], the system named is erythropoietin (EPO). Kind of assay: EPO expression in Kelly neuroblastoma cells. In kind it is cell-based. The settings on record: for EPO: conditioned media after overnight incubation. Here is the method: as §2
The test system of assay [6] is erythropoietin (EPO). Kind of assay: EPO expression in Hep3B cells (QUANTIKINE immunoassay of conditioned media). In kind it is cell-based, Human. The note with it: for Fold Increase Over Control: EPO, vs 1% DMSO control; for EPO: conditioned media after overnight incubation with compound. Here is the method: The effect of compounds of the present invention on expression of cytoprotective and neuroprotective factors in cells was evaluated as follows. Human cells derived from hepatocarcinoma (Hep3B) tissue (see, e.g., American Type Culture Collection, Manassas Va.) were seeded into 35 mm culture dishes and grown at 37° C., 20% O2, 5% CO2 in Minimal Essential Medium (MEM), Earle's balanced salt solution (Mediatech Inc., Herndon Va.), 2 mM L-glutamine, 0.1 mM non-essential amino acids, 1 mM sodium pyruvate, and 10% FBS. When cell layers reached confluence, the media was replaced with OPTI-MEM media (Invitrogen Life Technologies, Carlsbad Calif.) and cell layers were incubated for approximately 24 hours in 20% O2, 5% CO2 at 37° C. Various compounds of the present invention or 1% DMSO (negative control) were then added to existing media and incubation was continued overnight.
Following incubation, the conditioned media was collected from cell cultures and analyzed for erythropoietin (EPO) expression using a QUANTIKINE immunoassay (R&D Systems, Inc., Minneapolis Minn.) according to the manufacturer's instructions.

[7] abbreviates: compound given 4 hr after occlusion.

As for `O=C(O)CNC(=O)c1nc(Br)c2ccsc2c1O` [Compound AE, [(4-Bromo-7-hydroxy-thieno[3,2-c]pyridine-6-carbonyl)-amino]-acetic acid], the EPO in assay [1] was found to be 3825 pg/mL. Moreover, in assay [2], the “VEGF Fold Increase” value is listed as 2.7 and the VEGF amounted to 3710.0 pg/mL. Besides, the inhibition in vivo at up to 20 mg/kg in assay [3] (setting [7]) amounted to 63%. For the same compound, in assay [4], the fold induction at 20 mg/kg was found to be 1.45 and the VEGF amounted to 29 pg/mL. Further, in assay [5], the “EPO Fold Increase” value is recorded as 3.6 and the EPO is 95.5 mIU/ml. Besides, in assay [6], the “Fold Increase Over Control” value is on record as 3.0 and the EPO came out at 12.6 mIU/ml.

On to `Cc1nc2ccc(Oc3ccc4c(O)c(C(=O)NCC(=O)O)nc(C)c4c3)cc2o1` [Compound AF, {[4-Hydroxy-1-methyl-7-(2-methyl-benzooxazol-6-yloxy)-isoquinoline-3-carbonyl]-amino}-acetic acid], for which, in assay [1], the fold induction at 20 mg/kg came out at 21.3 and the EPO was determined as 192 pg/mL. Further, in assay [2], the “VEGF Fold Increase” value was 3.5 and the VEGF turned out to be 5124 pg/mL. The inhibition in vivo at up to 20 mg/kg in assay [3] (compound given 0 hr) is 21%. In assay [4], the fold induction at 20 mg/kg is 2.83 and the VEGF came to 82 pg/mL. For the same compound, in assay [5], the “EPO Fold Increase” value amounted to 12.24 and the EPO stood at 231.3 mIU/ml. For the same compound, in assay [6], the “Fold Increase Over Control” value stood at 15.3 and the EPO was 101.6 mIU/ml.

As for `O=Cc1nc(C(=O)NCC(=O)O)c(O)c2cc(Oc3ccccc3)ccc12` [Compound AK, [(1-Formyl-4-hydroxy-6-phenoxy-isoquinoline-3-carbonyl)-amino]-acetic acid], in assay [1], the fold induction at 20 mg/kg amounted to 62.8 and the EPO turned out to be 2763 pg/mL. Also, in assay [2], the “VEGF Fold Increase” value amounted to 3.9 and the VEGF was 5698 pg/mL. In assay [3] (compound given 0 hr), the “Percent Reduction in Edema” value is given as −12* % and the inhibition in vivo at up to 20 mg/kg stood at 13%. Besides, in assay [4], the fold induction at 20 mg/kg was determined as 1.12 and the VEGF stood at 47 pg/mL. In assay [5], the “EPO Fold Increase” value is listed as 2.23 and the EPO came to 42.2 mIU/ml. For the same compound, in assay [6], the “Fold Increase Over Control” value came out at 14.9 and the EPO is recorded as 35.3 mIU/ml.

In the case of `N#Cc1nc(C(=O)NCC(=O)O)c(O)c2c(Oc3ccccc3)cccc12` [Compound AM, [(1-Cyano-4-hydroxy-5-phenoxy-isoquinoline-3-carbonyl)-amino]-acetic acid], in assay [1], the fold induction at 20 mg/kg stood at 235 and the EPO came to 28206 pg/mL. Further, in assay [2], the “VEGF Fold Increase” value is on record as 4.0 and the VEGF worked out at 5825 pg/mL. For the same compound, the inhibition in vivo at up to 20 mg/kg in assay [3] (setting [7]) was determined as 71%. Further, in assay [4], the fold induction at 20 mg/kg turned out to be 0.38 and the VEGF turned out to be 24 pg/mL. In assay [5], the “EPO Fold Increase” value was determined as 6.25 and the EPO is given as 118.07 mIU/ml. Also, in assay [6], the “Fold Increase Over Control” value is 8.2 and the EPO is listed as 44.3 mIU/ml.

`N#Cc1nc(C(=O)NCC(=O)O)c(O)c2cc(Oc3ccc4c(c3)OCO4)ccc12` [Compound AN, {[6-(Benzo[1,3]dioxol-5-yloxy)-1-cyano-4-hydroxy-isoquinoline-3-carbonyl]-amino}-acetic acid]: in assay [1], the fold induction at 20 mg/kg worked out at 26.2 and the EPO came out at 14964 pg/mL. Further, in assay [2], the “VEGF Fold Increase” value came out at 5.3 and the VEGF was 7252 pg/mL. For the same compound, the inhibition in vivo at up to 20 mg/kg in assay [3] (setting [7]) came to 46%. Further, in assay [4], the fold induction at 20 mg/kg was 1.05 and the VEGF was 39 pg/mL. Also, in assay [5], the “EPO Fold Increase” value came out at 13.28 and the EPO is 251 mIU/ml. Also, in assay [6], the “Fold Increase Over Control” value worked out at 16.2 and the EPO worked out at 42.8 mIU/ml.

For `N#Cc1nc(C(=O)NCC(=O)O)c(O)c2cc(Oc3ccc4c(c3)CCO4)ccc12` [Compound AO, {[1-Cyano-6-(2,3-dihydro-benzofuran-5-yloxy)-4-hydroxy-isoquinoline-3-carbonyl]-amino}-acetic acid], in assay [1], the fold induction at 20 mg/kg was found to be 92.8 and the EPO came to 12719 pg/mL. In assay [2], the “VEGF Fold Increase” value is 4.6 and the VEGF was found to be 6653 pg/mL. Also, the inhibition in vivo at up to 20 mg/kg in assay [3] (setting [7]) was 55%. Moreover, in assay [4], the fold induction at 20 mg/kg turned out to be 0.97 and the VEGF came out at 38 pg/mL. Besides, in assay [5], the “EPO Fold Increase” value amounted to 19.55 and the EPO worked out at 369.5 mIU/ml. Moreover, in assay [6], the “Fold Increase Over Control” value was 83.4 and the EPO worked out at 83.4 mIU/ml.

With `Cc1nc2ccc(Oc3ccc4c(O)c(C(=O)NCC(=O)O)ncc4c3)cc2o1` [Compound N, {[4-Hydroxy-7-(2-methyl-benzooxazol-6-yloxy)-isoquinoline-3-carbonyl]-amino}-acetic acid], in assay [1], the fold induction at 20 mg/kg turned out to be 70.2 and the EPO worked out at 63.2 pg/mL. In assay [2], the “VEGF Fold Increase” value worked out at 4.6 and the VEGF turned out to be 6316 pg/mL. The inhibition in vivo at up to 20 mg/kg in assay [3] (compound given 0 hr) was 46%. In assay [4], the fold induction at 20 mg/kg came out at 2.28 and the VEGF was 66 pg/mL. For the same compound, in assay [5], the “EPO Fold Increase” value turned out to be 14.52 and the EPO was 380.5 mIU/ml. Also, in assay [6], the “Fold Increase Over Control” value is listed as 13.5 and the EPO is recorded as 89.9 mIU/ml.

Source of the values: patent US9775902B2, “Compounds and methods for treatment of stroke” (FIBROGEN, INC, priority 2006, dated 2017).
